Data from patent publication EP0390135A1, “Pyrroloquinoline derivatives, antimicrobial agents using the same and process for preparing the same” (OTSUKA PHARMACEUTICAL CO., LTD., priority 1989, dated 1990).
In brackets after ≈: the same amount, converted by molar mass. Counter-ions that a name gives are not always drawn. Like-named read-outs stand apart in the source and are kept apart here.

Experiments:
[1] = Ratio of dissolution to water (water solubility)
A.calcoaceticus Ac-54 = assay: MIC by agar plate dilution method; type: cell-based
Protocol: (§1) In order to investigate the in vitro activity of the under-mentioned compounds against various bacteria, the minimal inhibitory concentration (MIC, µg/mℓ) values were determined by the agar plate dilution method (see Chemotherapy, 22, 1126-1128 (1974)]. The results are shown in Table 1.

E.coli NIHJ JC-2 = assay: MIC by agar plate dilution method; type: cell-based
Protocol: as §1

E.facalis ATCC-21212 = assay: MIC by agar plate dilution method; type: cell-based; details: in vitro
Protocol: as §1

K.pneumoniae NCTC-9632 = assay: MIC by agar plate dilution method; type: cell-based
Protocol: as §1

M.morganii IID Kono = assay: MIC by agar plate dilution method; type: cell-based; details: in vitro
Protocol: as §1

P.aeruginosa ATCC-10145 = assay: MIC by agar plate dilution method; type: cell-based
Protocol: as §1

P.aeruginosa E-2 = assay: MIC by agar plate dilution method; type: cell-based
Protocol: as §1

P.mirabilis ATCC-29906 = assay: MIC by agar plate dilution method; type: cell-based
Protocol: as §1

S.aureus FDA209P = assay: MIC by agar plate dilution method; type: cell-based; details: in vitro
Protocol: as §1

S.marcoscons IFO-12648 = assay: MIC by agar plate dilution method; type: cell-based; details: in vitro
Protocol: as §1

physchem = details: water, Ratio of dissolution to water
[2] = Ratio of dissolution to water, at 20 °C
[3] = Acinetobacter calcoaceticus, AC54, in vitro, read-out: MIC
[4] = Escherichia coli, NIHJJC2, in vitro, read-out: MIC
[5] = Klebsiella pneumoniae, NCTC9632, in vitro, read-out: MIC
[6] = Morganella morganii, read-out: MIC
[7] = Pseudomonas aeruginosa, ATCC10145, in vitro, read-out: MIC
[8] = Pseudomonas aeruginosa, E2, in vitro, read-out: MIC
[9] = Proteus mirabilis, ATCC29906, in vitro, read-out: MIC
[10] = Staphylococcus aureus, FDA209P, read-out: MIC

SMILES | MIC (A.calcoaceticus Ac-54; [3]) [µg/mL] | MIC (E.coli NIHJ JC-2; [4]) [µg/mL] | MIC (E.facalis ATCC-21212; read-out: MIC) [µg/mL] | MIC (K.pneumoniae NCTC-9632; [5]) [µg/mL] | MIC (M.morganii IID Kono; [6]) [µg/mL] | MIC (P.aeruginosa ATCC-10145; [7]) [µg/mL] | MIC (P.aeruginosa E-2; [8]) [µg/mL] | MIC (P.mirabilis ATCC-29906; [9]) [µg/mL] | MIC (S.aureus FDA209P; [10]) [µg/mL] | MIC (S.marcoscons IFO-12648; read-out: MIC) [µg/mL] | other results
CC(C)NCC1CCN(c2c(F)cc3c(=O)c(C(=O)O)cn4c3c2CC4C)C1 (single isomer, unassigned; (+)) [Example 19, (+)-8-fluoro-2-methyl-9-[3-(isopropylaminomethy 1-pyrrolidyl]-6-oxo-1,2-dihydro-6H-pyrrolo[3,2,1-ij]quinoline-5-carboxylic acid hydrochloride] |  |  |  |  |  |  |  |  |  |  | solubility [1, 2]: 135 mg/mL
CC1Cc2c(N3CCN(C)CC3)c(F)cc3c(=O)c(C(=O)O)cn1c23 (single isomer, unassigned; (+)) [Example 7, (+)-8-fluoro-2-methyl-9-(4-methyl-1-piperazinyl)-6-oxo-1,2-dihydro-6H-pyrrolo[3,2,1-ij]quinoline-5-carboxylic acid] |  |  |  |  |  |  |  |  |  |  | MIC (A.calcoaceticus Ac-54; in vitro, listed as A): 0.1 µg/mL (≈ 0.29 µM); MIC (E.coli NIHJ JC-2; in vitro, listed as A): 0.05 µg/mL (≈ 0.145 µM); MIC (E.facalis ATCC-21212; listed as A): 0.78 µg/mL (≈ 2.26 µM); MIC (K.pneumoniae NCTC-9632; in vitro, listed as A): 0.05 µg/mL (≈ 0.145 µM); MIC (M.morganii IID Kono; listed as A): 0.05 µg/mL (≈ 0.145 µM); MIC (P.aeruginosa ATCC-10145; in vitro, listed as A): 1.56 µg/mL (≈ 4.52 µM); MIC (P.aeruginosa E-2; in vitro, listed as A): 0.78 µg/mL (≈ 2.26 µM); MIC (P.mirabilis ATCC-29906; in vitro, listed as A): 0.2 µg/mL (≈ 0.579 µM); MIC (S.aureus FDA209P; listed as A): 0.1 µg/mL (≈ 0.29 µM); MIC (S.marcoscons IFO-12648; listed as A): 0.05 µg/mL (≈ 0.145 µM)
CCNCC1CCN(c2c(F)cc3c(=O)c(C(=O)O)cn4c3c2CC4C)C1.Cl (single isomer, unassigned; (+)) [Example 18, (+)-8-fluoro-2-methyl-9-[3-(ethylaminomethyl)-1-pyrrolidinyl]-6-oxo-1,2-dihydro-6H-pyrrolo[3,2,1-ij]quinoline-5-carboxylic acid hydrochloride] |  |  |  |  |  |  |  |  |  |  | solubility [1]: 195 mg/mL
CC1Cc2c(N3CCN(C)CC3)c(F)cc3c(=O)c(C(=O)O)cn1c23 (single isomer, unassigned; (-)) [Reference Example 1, (-)-8-fluoro-2-methyl-9-(4-methyl-1-piperazinyl)-6-oxo-1,2-dihydro-6H-pyrrolo[3,2,1-ij]quinoline-5-carboxylic acid, reference compound] |  |  |  |  |  |  |  |  |  |  | MIC (A.calcoaceticus Ac-54; in vitro, listed as F): 3.13 µg/mL (≈ 9.06 µM); MIC (E.coli NIHJ JC-2; in vitro, listed as F): 0.78 µg/mL (≈ 2.26 µM); MIC (E.facalis ATCC-21212; listed as F): 100 µg/mL (≈ 290 µM); MIC (K.pneumoniae NCTC-9632; in vitro, listed as F): 0.78 µg/mL (≈ 2.26 µM); MIC (M.morganii IID Kono; listed as F): 0.78 µg/mL (≈ 2.26 µM); MIC (P.aeruginosa ATCC-10145; in vitro, listed as F): 25 µg/mL (≈ 72.4 µM); MIC (P.aeruginosa E-2; in vitro, listed as F): 12.5 µg/mL (≈ 36.2 µM); MIC (P.mirabilis ATCC-29906; in vitro, listed as F): 3.13 µg/mL (≈ 9.06 µM); MIC (S.aureus FDA209P; listed as F): 3.13 µg/mL (≈ 9.06 µM); MIC (S.marcoscons IFO-12648; listed as F): 0.78 µg/mL (≈ 2.26 µM)
CC1CN(c2c(Cl)cc3c(=O)c(C(=O)O)cn4c3c2CC4C)CCN1.Cl (single isomer, unassigned; (+)) [Example 11, (+)-8-chloro-2-methyl-9-(3-methyl-1-piperazinyl)-6-oxo-1,2-dihydro-6H-pyrrolo[3,2,1-ij]quinoline-5-carboxylic acid hydrochloride] | 0.78 | 0.1 | 6.25 | 0.1 | 0.024 | 0.78 | 0.78 | 0.2 | 0.39 | 0.2 | solubility (physchem): 231 mg/mL
CC1Cc2c(N3CCN(C)CC3)c(F)cc3c(=O)c(C(=O)O)cn1c23 (racemic) [Test Compound E, 8-fluoro-2-methyl-9-(4-methyl-1-piperazinyl)-6-oxo-1,2-dihydro-6H-pyrrolo[3,2,1-ij]quinoline-5-carboxylic acid, reference compound] | 0.2 (≈ 0.579 µM) | 0.1 (≈ 0.29 µM) | 1.56 (≈ 4.52 µM) | 0.1 (≈ 0.29 µM) | 0.1 (≈ 0.29 µM) | 3.13 (≈ 9.06 µM) | 1.56 (≈ 4.52 µM) | 0.39 (≈ 1.13 µM) | 0.2 (≈ 0.579 µM) | 0.1 (≈ 0.29 µM) | 
CC1CN(c2c(F)cc3c(=O)c(C(=O)O)cn4c3c2CC4C)CCN1.Cl (single isomer, unassigned; (+)) [Example 8, (+)-8-fluoro-2-methyl-9-(3-methyl-1-piperazinyl)-6-oxo-1,2-dihydro-6H-pyrrolo[3,2,1-ij]quinoline-5-carboxylic acid hydrochloride] | 0.39 | 0.05 | 3.13 | 0.05 | 0.012 | 0.39 | 0.39 | 0.1 | 0.2 | 0.1 | Ratio of dissolution to water: 385 mg/mL
CC1Cc2c(N3CCC(N)C3)c(F)cc3c(=O)c(C(=O)O)cn1c23.Cl (single isomer, unassigned; (+)) [Example 17 hydrochloride, (+)-8-fluoro-2-methyl-9-(3-amino-1-pyrrolidyl)-6-oxo-1,2-dihydro-6H-pyrrolo[3,2,1-ij]quinoline-5-carboxylic acid hydrochloride] |  |  |  |  |  |  |  |  |  |  | solubility (physchem): 158 mg/mL
CC1Cc2c(N3CCN(C)CC3)c(F)cc3c(=O)c(C(=O)O)cn1c23.Cl (racemic) [Reference Example 3, (±)-8-fluoro-2-methyl-9-(4-methyl-1-piperazinyl)-6-oxo-1,2-dihydro-6H-pyrrolo[3,2,1-ij]quinoline-5-carboxylic acid hydrochloride, reference compound] |  |  |  |  |  |  |  |  |  |  | solubility (physchem): 12 mg/mL
CC1CN(c2c(F)cc3c(=O)c(C(=O)O)cn4c3c2CC4C)CCN1.Cl (racemic) [Example 10, (±)-8-fluoro-2-methyl-9-(3-methyl-1-piperazinyl)-6-oxo-1,2-dihydro-6H-pyrrolo[3,2,1-ij]quinoline-5-carboxylic acid hydrochloride] |  |  |  |  |  |  |  |  |  |  | solubility (physchem): 152 mg/mL
CC1CN(c2c(F)cc3c(=O)c(C(=O)O)cn4c3c2CC4C)CCN1.Cl (single isomer, unassigned; (-)) [Reference Example 2, (-)-8-fluoro-2-methyl-9-(3-methyl-1-piperazinyl)-6-oxo-1,2-dihydro-6H-pyrrolo[3,2,1-ij]quinoline-5-carboxylic acid hydrochloride, reference compound] |  |  |  |  |  |  |  |  |  |  | Ratio of dissolution to water: 167 mg/mL
CC1Cc2c(N3CCN(C)CC3)c(F)cc3c(=O)c(C(=O)O)cn1c23 (single isomer, unassigned) [Example 7 hydrochloride] |  |  |  |  |  |  |  |  |  |  | solubility [1, 2]: 230 mg/mL
CC1CN(c2c(F)cc3c(=O)c(C(=O)O)cn4c3c2CC4C)CC(C)N1.Cl (single isomer, unassigned; (+)) [Example 12, (+)-8-fluoro-2-methyl-9-(3,5-dimethyl-1-piperazinyl)-6-oxo-1,2-dihydro-6H-pyrrolo[3,2,1-ij]quinoline-5-carboxylic acid hydrochloride] |  |  |  |  |  |  |  |  |  |  | solubility [1]: 175 mg/mL
CC1CN(c2c(F)cc3c(=O)c(C(=O)O)cn4c3c2CC4C)CCN1 (single isomer, unassigned; (+)) [Example 20, (+)-8-fluoro-2-methyl-9-(3-methyl-1-piperazinyl)-6-oxo-1,2-dihydro-6H-pyrrolo[3,2,1-ij]quinoline-5-carboxylic acid] |  |  |  |  |  |  |  |  |  |  | solubility [1, 2]: 143 mg/mL

The next lines start with results.

MIC (A.calcoaceticus Ac-54; [3]) [µg/mL] | MIC (E.coli NIHJ JC-2; [4]) [µg/mL] | MIC (E.facalis ATCC-21212; read-out: MIC) [µg/mL] | MIC (K.pneumoniae NCTC-9632; [5]) [µg/mL] | MIC (M.morganii IID Kono; [6]) [µg/mL] | MIC (P.aeruginosa ATCC-10145; [7]) [µg/mL] | MIC (P.aeruginosa E-2; [8]) [µg/mL] | MIC (P.mirabilis ATCC-29906; [9]) [µg/mL] | MIC (S.aureus FDA209P; [10]) [µg/mL] | MIC (S.marcoscons IFO-12648; read-out: MIC) [µg/mL] | SMILES | other results
0.39 (≈ 1.08 µM) | 0.1 (≈ 0.277 µM) | 3.13 (≈ 8.66 µM) | 0.1 (≈ 0.277 µM) | 0.1 (≈ 0.277 µM) | 3.13 (≈ 8.66 µM) | 1.5 (≈ 4.15 µM) | 0.39 (≈ 1.08 µM) | 0.2 (≈ 0.553 µM) | 0.2 (≈ 0.553 µM) | CC1COc2c(N3CCN(C)CC3)c(F)cc3c(=O)c(C(=O)O)cn1c23 (stereo not drawn) [Test Compound G, S-(-)-9-fluoro-3-methyl-10-(4-methyl-1-piperazinyl)-7-oxo-2,3-dihydro-7H-pyrido[1,2,3-de][1,4]benzoxazine-6-carboxylic acid, reference compound] | 
0.39 (≈ 1.18 µM) | 0.05 (≈ 0.151 µM) | 3.13 (≈ 9.45 µM) | 0.05 (≈ 0.151 µM) | 0.024 (≈ 0.0724 µM) | 0.39 (≈ 1.18 µM) | 0.39 (≈ 1.18 µM) | 0.1 (≈ 0.302 µM) | 0.2 (≈ 0.604 µM) | 0.1 (≈ 0.302 µM) | CC1Cc2c(N3CCC(N)C3)c(F)cc3c(=O)c(C(=O)O)cn1c23 (single isomer, unassigned; (+)) [Example 17, (+)-8-fluoro-2-methyl-9-(3-amino-1-pyrrolidinyl)-6-oxo-1,2-dihydro-6H-pyrrolo[3,2,1-ij]quinoline-5-carboxylic acid] | 
